The target in series [1] is T1, native human Bradykinin B1 receptor (Homo sapiens, UniProt P46663).
T1 construct: which express native human Bradykinin B1 receptor after induction with human IL-1beta; Coriell Institute; host or cells: IMR-90 human foetal lung fibroblasts, induced with human IL-1beta
T1 sequence (P46663 1-353): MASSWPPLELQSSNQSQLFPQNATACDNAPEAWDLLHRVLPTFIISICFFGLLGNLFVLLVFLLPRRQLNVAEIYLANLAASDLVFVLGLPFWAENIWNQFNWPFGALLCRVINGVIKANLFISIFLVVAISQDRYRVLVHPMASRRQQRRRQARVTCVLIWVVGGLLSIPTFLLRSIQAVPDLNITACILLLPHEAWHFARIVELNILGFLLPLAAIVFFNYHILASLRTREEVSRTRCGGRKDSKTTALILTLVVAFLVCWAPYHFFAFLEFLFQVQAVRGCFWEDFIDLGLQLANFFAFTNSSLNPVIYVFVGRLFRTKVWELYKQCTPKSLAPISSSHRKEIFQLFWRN
Put plainly: Calcium flux assay (FLIPR) with IMR-90 human fibroblasts expressing Bradykinin B1 receptor after IL-1beta induction (hB1 IMR-90). The series is classed as cell-based. Conditions: IMR-90 human fibroblasts after IL-1beta induction, read-out: hB1 IMR90 IC50. How it is done: Calcium Flux Assay (FLIPR) with Human Fibroblasts Expressing Bradykinin B1 Receptor (hB1 IMR-90)
The Calcium flux Assay was carried out utilising IMR-90 human foetal lung fibroblasts (American Type Culture Collection, Rockville, MD; and Coriell Institute, Camden, New Jersey), which express native human Bradykinin B1 receptor after induction with human IL-1beta.
The fibroblasts were cultured in complete growth media comprised of Dulbecco's modified Eagle's medium (DMEM; Sigma) containing 10% foetal bovine serum, 4 mM L-glutamine, and 1% nonessential amino acids. The cells were maintained in a humidified atmosphere with 5% CO2 at 37° C. and were sub-cultured at a ratio of 1:3, every other day.
For the assay, IMR-90 fibroblasts were harvested using TrypLE Express (GIBCO/Invitrogen) and seeded into 384-well plates (Corning Cellbinding Surface, Cat. 3683) at a density of 15000 cells/well. The following day, cells were treated with 0.35 ng/mL human IL-1beta in 10% FBS/MEM for 3 h to up-regulate Bradykinin B1 receptor. Induced cells were loaded with fluorescent calcium indicator by incubation with 2.5 μM Fluo-4/AM (Invitrogen) at 37° C., 5% CO2 for 2 h in the presence of 2.5 mM probenecid in 1% FBS/MEM. […] Compound examples were assayed at 8 concentrations in triplicate. […] A peptide antagonist Lys-(Des-Arg-Leu)-Bradykinin (Bachem, Brackley) at 20 µM was used to determine the full inhibition as control. IC50 values were determined by the same way described for the FLI PR assay with recombinant cells.

The subject of series [2] is Male Sprague Dawley rats. Put plainly: Rat CFA in vivo model (mechanical hyperalgesia, paw withdrawal threshold). Conditions: for Paw withdrawal threshold 2 hours post-compound: 2 hours post-compound (Table 5). How it is done: Male Sprague Dawley rats were used. Mechanical hyperalgesia was induced by injecting 25 μL of Complete Freund's Adjuvant (CFA) into the plantar surface of one hind paw. Mechanical hyperalgesia was measured using the Pressure Application Measurement apparatus (Ugo Basile, Gemonio, Italy). Briefly, a linearly increasing pressure was applied to an area of ˜50 mm^2 of the plantar side of the hind paw until a behavioural response (paw withdrawal) was observed or until the pressure reached 1000 gf. The pressure at which the behavioural response occurred was recorded as the “Paw Withdrawal Threshold” (PWT). Both CFA-injected and contralateral PWTs were determined for each rat, in each treatment group and at each time point of the studies. The Compound Examples were administered orally in a vehicle of dimethylsulfoxide (DMSO), Polyethylenglycol (PEG) and 2-hydroxypropyl-beta-cyclodextrin (HPCD) (v/v/v=3:20:77). Rats received a first dose of […] of Compound Example per kg body weight 1 hour before CFA injection and a second dose 24 hours after the CFA injection. Mechanical hyperalgesia testing was performed approximately 2 hours before CFA injection, then 2 and 4 hours after the second dose of Compound Example (i.e. 26 and 28 hours after CFA treatment). Data were expressed as the mean±S.D. Area Under the Curve (AUC) of PWTs (defined in table 3 as “AUC of Paw withdrawal threshold (AUC 0-4 hours) post-vehicle” with respect to vehicle group or “AUC of Paw withdrawal threshold (AUC 0-4 hours) post-drug” with respect to Compound Example). Data were analysed by performing a one-way ANOVA followed by a Dunnett's post hoc test. For p values less than 0.05 the results were deemed to be statistically significant.

The target in series [3] is T2, human Bradykinin B1 receptor (Homo sapiens, UniProt P46663).
T2 construct: host or cells: CHO-K1
T2 sequence (P46663 1-353): T1 sequence (P46663 1-353)
In words: Calcium flux assay (FLIPR), CHO-K1 cells expressing human Bradykinin B1 receptor, absence of 0.1% BSA (hB1 free IC50). The settings on record: absence of 0.1% BSA in assay buffer. The series is classed as cell-based. Summed up:
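CHO-K1 hB1-D1 cells, dye-loaded, given compounds (8 concentrations, triplicate, 1% DMSO) 30 min at 28° C, then stimulated with selective B1 agonist peptide; Ca2+ fluorescence read at 538 nm on FLIPR. Peak response normalised to DMSO and 20 µM Lys-(Des-Arg-Leu)-Bradykinin full inhibition; IC50 fitted.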

For series [4], the target named is T3, human B1R (Homo sapiens, UniProt P46663).
T3 construct: host or cells: CHO cells
T3 sequence (P46663 1-353): T1 sequence (P46663 1-353)
Conditions: human B1R-expressing CHO cells; cited from earlier work.

The conditions of series [5]: due to metabolic lability; cited from earlier work.
For series [6] the following is noted: cited from earlier work.
For series [7] the following is noted: cited from earlier work. The source holds these as a separate data set.
The conditions of series [8]: cited from earlier work. This is another data set of the same source.

With `O=C(O)c1cc(NC(=O)C2(c3ccc(OC(F)(F)F)cc3F)CC2)cc(F)c1-c1cnn(C2CCC2)c1` [Example 43, 2-(1-Cyclobutyl-1H-pyrazol-4-yl)-3-fluoro-5-[({1-[2-fluoro-4-(trifluoromethoxy)phenyl]cyclopropyl}carbonyl)amino]benzoic acid], the concentration for half-maximal inhibition (IC50) in series [1] was 2.8 nM; in series [3], 7 nM. The figures for the “Paw withdrawal threshold 4 hours post-compound” value in series [2] (0.75 mg/kg p.o.), in series [2] (3 mg/kg p.o.) and in series [2] (15 mg/kg p.o.) were 599 ± 28 gf (ns), 610 ± 21 gf (ns) and 709 ± 18 gf (****), respectively.

For `COC(=O)c1c(Cl)cccc1N1CCC(CNC(=O)C2(NC(=O)C(F)(F)F)CC2)CC1`, the binding affinity result in series [4] is given as “highest”.

Take `CC(C)n1cc(-c2ccc(NC(=O)C3(c4ccc(OC(F)(F)F)cc4F)CC3)cc2C(=O)O)cn1` [Example 71, 5-[({1-[2-Fluoro-4-(trifluoromethoxy)phenyl]cyclopropyl}carbonyl)amino]-2-[1-(propan-2-yl)-1H-pyrazol-4-yl]benzoic acid]: the figures for the IC50 in series [1] and in series [3] were 28 nM and 47 nM, respectively. The “Paw withdrawal threshold 2 hours post-compound” value is listed as 591 ± 20 gf (ns) in series [2] (0.75 mg/kg p.o.), 628 ± 17 gf (ns) in series [2] (3 mg/kg p.o.) and 742 ± 49 gf (****) in series [2] (10 mg/kg p.o.).

`C[C@@H](NC(=O)C1(NC(=O)C(F)(F)F)CC1)c1ccc(-c2cccc(Cl)c2C(=O)O)cc1F` [MK-0686]: the pharmacokinetic profile result in series [5] was “suboptimal”.

Consider `C[C@@H]1CC[C@H](C)N1C(=O)c1ccc([C@@H](C)NC(=O)C2(NC(=O)c3cc(F)cc(C(F)(F)F)c3)CC2)c(F)c1`, for which the aqueous solubility result in series [6] is on record as “reasonable”. Also, the human metabolic stability entry in series [7] is recorded as “poor”. Also, in series [8], the “pharmacokinetic profile in rat” value was “reasonable”.

The record behind these values is patent US12023319B2, “Carboxylic acid aromatic amides” (priority 2016, dated 2024).
